Measurements as given in patent US20090012095A1, “HUMAN N-TYPE CALCIUM CHANNEL BLOCKERS” (Wyeth, priority 2002, published 2009).
pIC50: −log10 of the molar value.

How the values were obtained:
[1] = target: T1, N-type calcium channel α1B+SFVG (Homo sapiens, UniProt Q00975, INS1237SFVG); assay: Transient expression and recording from Xenopus oocytes, calcium channel modulation; format: cell-based; conditions: transient expression
T1 construct: expressed in transfected cells; host or cells: Xenopus oocytes
Method: Representative compounds of the formulae herein are screened for activity against […] in an assay essentially as described in J. Neurosci., Aug. 15, 2001, 21(16):5944-5951, W. Xu and D. Lipscombe, using transient expression and recording from Xenopus oocytes. The assay is performed using various calcium channels (e.g., N-type calcium channel α1B+SFVG) whereby the modulation of the calcium channel is measured for each compound.
The following IC50 data were obtained for compounds 1 and 2, following the above-referenced protocols (see Table 1).

[2] = target: N-type calcium channel α1B+SFVG (Homo sapiens, UniProt Q00975); assay: Calcium channel modulation in HEK298 cells; format: cell-based
Sequence of N-type calcium channel α1B+SFVG (Homo sapiens, UniProt Q00975) (Q00975 whole entry): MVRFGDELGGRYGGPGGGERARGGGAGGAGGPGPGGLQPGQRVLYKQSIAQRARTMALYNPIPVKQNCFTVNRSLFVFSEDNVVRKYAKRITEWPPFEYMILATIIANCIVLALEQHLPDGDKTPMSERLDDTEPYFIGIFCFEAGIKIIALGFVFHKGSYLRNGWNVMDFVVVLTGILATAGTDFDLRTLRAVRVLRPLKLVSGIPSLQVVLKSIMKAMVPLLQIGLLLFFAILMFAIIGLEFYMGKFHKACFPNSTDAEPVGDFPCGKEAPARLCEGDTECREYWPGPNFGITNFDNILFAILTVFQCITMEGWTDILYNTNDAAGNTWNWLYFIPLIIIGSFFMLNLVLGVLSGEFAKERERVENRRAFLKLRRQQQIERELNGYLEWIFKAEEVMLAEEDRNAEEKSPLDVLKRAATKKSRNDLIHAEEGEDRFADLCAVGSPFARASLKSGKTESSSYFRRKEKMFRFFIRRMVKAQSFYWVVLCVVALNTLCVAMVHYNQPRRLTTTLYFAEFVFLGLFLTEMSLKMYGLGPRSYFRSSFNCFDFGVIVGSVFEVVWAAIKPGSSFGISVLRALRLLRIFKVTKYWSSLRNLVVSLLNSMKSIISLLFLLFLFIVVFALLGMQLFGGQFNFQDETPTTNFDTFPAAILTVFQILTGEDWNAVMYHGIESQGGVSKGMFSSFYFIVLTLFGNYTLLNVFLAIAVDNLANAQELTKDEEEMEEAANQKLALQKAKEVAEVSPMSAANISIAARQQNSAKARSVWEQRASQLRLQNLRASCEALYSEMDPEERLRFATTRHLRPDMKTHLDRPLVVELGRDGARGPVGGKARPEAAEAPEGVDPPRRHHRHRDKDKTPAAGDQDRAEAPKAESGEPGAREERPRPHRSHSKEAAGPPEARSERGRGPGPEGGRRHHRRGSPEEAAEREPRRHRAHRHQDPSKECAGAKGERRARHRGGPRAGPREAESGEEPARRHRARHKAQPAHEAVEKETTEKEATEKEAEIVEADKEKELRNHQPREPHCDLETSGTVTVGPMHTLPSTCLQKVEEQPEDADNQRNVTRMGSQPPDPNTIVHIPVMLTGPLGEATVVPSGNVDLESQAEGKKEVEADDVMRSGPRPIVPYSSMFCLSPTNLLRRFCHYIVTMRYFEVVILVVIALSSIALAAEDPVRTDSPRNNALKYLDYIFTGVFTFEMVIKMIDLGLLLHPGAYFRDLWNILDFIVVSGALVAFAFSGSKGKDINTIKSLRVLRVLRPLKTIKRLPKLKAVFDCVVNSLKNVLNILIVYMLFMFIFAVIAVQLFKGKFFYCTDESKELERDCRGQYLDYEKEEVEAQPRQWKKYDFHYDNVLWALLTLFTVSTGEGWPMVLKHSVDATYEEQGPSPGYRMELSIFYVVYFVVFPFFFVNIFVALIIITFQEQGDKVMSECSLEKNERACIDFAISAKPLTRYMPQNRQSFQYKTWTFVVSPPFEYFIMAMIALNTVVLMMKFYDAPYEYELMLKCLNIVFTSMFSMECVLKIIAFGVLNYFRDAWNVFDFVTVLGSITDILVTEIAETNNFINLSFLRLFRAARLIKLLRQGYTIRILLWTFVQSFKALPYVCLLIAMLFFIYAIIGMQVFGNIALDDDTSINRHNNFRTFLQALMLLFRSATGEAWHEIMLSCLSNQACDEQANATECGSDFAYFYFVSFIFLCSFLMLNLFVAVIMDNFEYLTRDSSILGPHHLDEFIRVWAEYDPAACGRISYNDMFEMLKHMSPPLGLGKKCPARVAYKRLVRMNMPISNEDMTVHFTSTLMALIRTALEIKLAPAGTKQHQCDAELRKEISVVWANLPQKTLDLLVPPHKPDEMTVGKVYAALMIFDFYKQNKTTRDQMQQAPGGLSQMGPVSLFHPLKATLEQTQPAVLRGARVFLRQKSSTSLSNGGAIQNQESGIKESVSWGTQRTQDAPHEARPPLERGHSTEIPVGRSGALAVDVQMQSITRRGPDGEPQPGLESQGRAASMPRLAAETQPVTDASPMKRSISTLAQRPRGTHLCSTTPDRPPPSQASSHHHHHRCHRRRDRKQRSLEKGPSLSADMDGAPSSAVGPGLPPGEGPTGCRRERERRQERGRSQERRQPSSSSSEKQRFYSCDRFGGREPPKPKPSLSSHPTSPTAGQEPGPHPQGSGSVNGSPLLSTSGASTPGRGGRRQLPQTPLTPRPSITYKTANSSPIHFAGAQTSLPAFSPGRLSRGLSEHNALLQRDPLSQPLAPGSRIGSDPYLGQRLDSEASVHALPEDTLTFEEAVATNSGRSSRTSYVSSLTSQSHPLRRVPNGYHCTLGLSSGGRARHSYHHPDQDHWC

T1 sequence (Q00975 with tags, fused parts or gaps INS1237SFVG): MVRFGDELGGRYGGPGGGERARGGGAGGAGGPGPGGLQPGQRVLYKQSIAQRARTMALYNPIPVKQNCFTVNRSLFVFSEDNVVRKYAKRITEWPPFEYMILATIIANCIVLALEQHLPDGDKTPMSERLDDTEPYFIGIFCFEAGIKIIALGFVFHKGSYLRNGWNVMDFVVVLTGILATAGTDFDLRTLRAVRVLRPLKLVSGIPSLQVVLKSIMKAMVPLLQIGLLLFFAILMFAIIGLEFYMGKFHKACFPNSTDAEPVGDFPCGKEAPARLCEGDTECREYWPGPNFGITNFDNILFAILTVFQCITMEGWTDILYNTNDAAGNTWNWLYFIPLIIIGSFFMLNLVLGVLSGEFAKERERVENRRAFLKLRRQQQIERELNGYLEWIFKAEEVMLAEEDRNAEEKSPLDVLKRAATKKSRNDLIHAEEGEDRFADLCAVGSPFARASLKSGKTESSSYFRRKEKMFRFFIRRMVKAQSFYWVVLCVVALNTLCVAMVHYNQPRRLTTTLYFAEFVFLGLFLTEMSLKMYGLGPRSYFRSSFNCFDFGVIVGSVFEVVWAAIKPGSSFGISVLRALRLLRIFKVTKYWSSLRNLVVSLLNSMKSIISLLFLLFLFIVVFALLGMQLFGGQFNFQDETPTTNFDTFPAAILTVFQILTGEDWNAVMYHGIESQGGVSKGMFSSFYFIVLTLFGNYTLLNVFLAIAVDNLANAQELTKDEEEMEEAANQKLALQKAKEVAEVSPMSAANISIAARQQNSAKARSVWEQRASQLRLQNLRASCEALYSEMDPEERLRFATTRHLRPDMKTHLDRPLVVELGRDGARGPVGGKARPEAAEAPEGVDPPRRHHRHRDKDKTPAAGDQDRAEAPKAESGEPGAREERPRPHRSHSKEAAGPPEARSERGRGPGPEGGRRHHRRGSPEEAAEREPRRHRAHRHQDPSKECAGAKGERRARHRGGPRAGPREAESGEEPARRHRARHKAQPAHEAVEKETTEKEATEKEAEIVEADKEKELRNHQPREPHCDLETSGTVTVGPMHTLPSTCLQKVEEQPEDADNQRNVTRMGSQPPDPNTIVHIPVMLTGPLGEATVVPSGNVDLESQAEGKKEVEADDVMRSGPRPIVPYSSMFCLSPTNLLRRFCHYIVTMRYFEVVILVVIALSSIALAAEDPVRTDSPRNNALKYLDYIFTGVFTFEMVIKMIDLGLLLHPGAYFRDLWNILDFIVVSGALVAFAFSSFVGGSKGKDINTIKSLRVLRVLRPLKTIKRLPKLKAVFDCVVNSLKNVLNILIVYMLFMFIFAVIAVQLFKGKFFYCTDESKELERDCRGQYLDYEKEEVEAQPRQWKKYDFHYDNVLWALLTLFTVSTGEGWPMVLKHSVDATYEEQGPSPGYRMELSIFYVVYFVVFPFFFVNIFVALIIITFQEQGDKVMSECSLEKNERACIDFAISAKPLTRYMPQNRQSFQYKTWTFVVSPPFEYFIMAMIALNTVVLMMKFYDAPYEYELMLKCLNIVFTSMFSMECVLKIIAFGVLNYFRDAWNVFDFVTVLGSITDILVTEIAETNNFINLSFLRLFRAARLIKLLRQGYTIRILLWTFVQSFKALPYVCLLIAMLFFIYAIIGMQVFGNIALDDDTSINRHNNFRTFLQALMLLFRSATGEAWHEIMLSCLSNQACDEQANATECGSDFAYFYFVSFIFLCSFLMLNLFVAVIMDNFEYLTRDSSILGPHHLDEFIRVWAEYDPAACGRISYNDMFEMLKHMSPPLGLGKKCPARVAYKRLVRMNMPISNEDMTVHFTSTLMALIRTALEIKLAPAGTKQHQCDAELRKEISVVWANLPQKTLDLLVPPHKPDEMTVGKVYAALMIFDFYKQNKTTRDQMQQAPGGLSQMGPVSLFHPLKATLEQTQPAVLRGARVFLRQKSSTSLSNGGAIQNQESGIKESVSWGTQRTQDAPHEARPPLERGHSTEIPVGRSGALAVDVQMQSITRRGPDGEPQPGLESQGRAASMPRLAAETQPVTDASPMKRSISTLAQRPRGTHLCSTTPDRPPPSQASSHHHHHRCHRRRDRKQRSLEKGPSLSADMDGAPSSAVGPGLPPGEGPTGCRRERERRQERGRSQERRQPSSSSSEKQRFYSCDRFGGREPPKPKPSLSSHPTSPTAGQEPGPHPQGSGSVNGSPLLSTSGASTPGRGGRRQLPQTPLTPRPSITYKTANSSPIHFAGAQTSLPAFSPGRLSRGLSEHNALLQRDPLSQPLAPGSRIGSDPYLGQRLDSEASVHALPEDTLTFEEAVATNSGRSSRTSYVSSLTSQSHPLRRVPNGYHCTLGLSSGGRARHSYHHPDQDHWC

Q: How did the pIC50 [1] turn out when O=C(CCCCC(c1ccccc1)c1ccccc1)N1CCC(NCc2ccccc2)CC1 [Compound 2] was run?
A: 5.38

Q: How did the pIC50 [1] turn out when COc1cc(CN2CCN(CCCCCC(c3ccc(F)cc3)c3ccc(F)cc3)CC2)cc(OC)c1OC [Compound 1] was run?
A: 5.15

Q: What about the pIC50 [2] of the same compound?
A: 6.72
